Laboratory results published in US4360665A, “4"-N-(Substituted)-apramycin antibiotic derivatives and intermediates therefor” (Eli Lilly and Company, priority 1981, dated 1982).
Converted amounts (≈) assume the structure as drawn. Like-named read-outs stand apart in the source and are kept apart here.

What was measured:
Experiment in all cases: MIC by standard agar dilution test
Assay type in all cases: cell-based
Serratia marcescens SE3 = tested on: Serratia marcescens SE3
Description: (§1) The antibacterial activity of the antibiotic compounds of this invention is illustrated by the following in vitro and in vivo test data obtained with representative compounds. In Tables I and II, the minimum inhibitory concentration (MIC) for representative compounds against a wide range of gram-positive and gram-negative bacteria are presented. The MIC values were obtained by the standard agar dilution test.

[1] = tested on: Pseudomonas aeruginosa X48; conditions: Table II, read-out: Minimum Inhibitory Concentration
Description: as §1

[2] = tested on: Pseudomonas aeruginosa X528
Description: as §1

[3] = tested on: Enterobacter cloacae EN453; conditions: Table II, read-out: Minimum Inhibitory Concentration
Description: as §1

[4] = tested on: Pseudomonas aeruginosa 4276; conditions: Table II, read-out: Minimum Inhibitory Concentration
Description: as §1

[5] = tested on: Klebsiella pneumoniae KL2; conditions: Table II, read-out: Minimum Inhibitory Concentration
Description: as §1

Serratia marcescens SE2 = conditions: Table II, read-out: Minimum Inhibitory Concentration
Description: as §1

[6] = tested on: Pseudomonas aeruginosa PI23; conditions: Table II, read-out: Minimum Inhibitory Concentration
Description: as §1

[7] = tested on: Enterobacter cloacae EB24
Description: as §1

Proteus morganii PR1 = conditions: Morganella morganii, Table II, read-out: Minimum Inhibitory Concentration
Description: as §1

[8] = tested on: Pseudomonas aeruginosa X239
Description: as §1

[9] = tested on: Pseudomonas aeruginosa Ps25; conditions: Table II, read-out: Minimum Inhibitory Concentration
Description: as §1

[10] = tested on: Pseudomonas aeruginosa Ps9; conditions: Table II, read-out: Minimum Inhibitory Concentration
Description: as §1

Proteus rettgeri PR2 = conditions: Providencia rettgeri, Table II, read-out: Minimum Inhibitory Concentration
Description: as §1

[11] = tested on: Enterobacter aerogenes EB6; conditions: Klebsiella aerogenes
Description: as §1

Proteus inconstans PV25 = conditions: Providencia alcalifaciens, Table II, read-out: Minimum Inhibitory Concentration
Description: as §1

Serratia marcescens X99 = tested on: Serratia marcescens X99
Description: as §1

[12] = tested on: Pseudomonas aeruginosa SF-2; conditions: SF2, Table II, read-out: Minimum Inhibitory Concentration
Description: as §1

[13] = tested on: Pseudomonas aeruginosa Ps15; conditions: Table II, read-out: Minimum Inhibitory Concentration
Description: as §1

Escherichia coli TEM = conditions: read-out: Minimum Inhibitory Concentration
Description: as §1

Shigella sonnei N9 = conditions: Table 1, read-out: Minimum Inhibitory Concentration
Description: as §1

[14] = tested on: Staphylococcus aureus X400; conditions: Table 1, read-out: Minimum Inhibitory Concentration
Description: as §1

[15] = tested on: Staphylococcus aureus X1.1; conditions: Table 1, read-out: Minimum Inhibitory Concentration
Description: as §1

Proteus rettgeri C24 = conditions: Providencia rettgeri, Table 1, read-out: Minimum Inhibitory Concentration
Description: as §1

[16] = tested on: Bordetella bronchiseptica 16; conditions: Table 1; Bordetella bronchiseptica 16; agar dilution; read-out: Minimum Inhibitory Concentration
Description: as §1

Proteus rettgeri PR7 = conditions: Providencia rettgeri, Table 1, read-out: Minimum Inhibitory Concentration
Description: as §1

[17] = tested on: Enterobacter cloacae 265A; conditions: Table 1, read-out: Minimum Inhibitory Concentration
Description: as §1

[18] = tested on: Enterobacter aerogenes X68; conditions: Klebsiella aerogenes, Table 1, read-out: Minimum Inhibitory Concentration
Description: as §1

[19] = tested on: Staphylococcus epidermidis EPI1; conditions: Table 1, read-out: Minimum Inhibitory Concentration
Description: as §1

[20] = tested on: Citrobacter freundii CF17; conditions: Table 1, read-out: Minimum Inhibitory Concentration
Description: as §1

Escherichia coli EC14 = conditions: Table 1, read-out: Minimum Inhibitory Concentration
Description: as §1

[21] = tested on: Klebsiella pneumoniae X26; conditions: Table 1, read-out: Minimum Inhibitory Concentration
Description: as §1

[22] = tested on: Haemophilus influenzae HOLT; conditions: Table 1, read-out: Minimum Inhibitory Concentration
Description: as §1

[23] = tested on: Staphylococcus aureus S13E; conditions: read-out: Minimum Inhibitory Concentration
Description: as §1

[24] = tested on: Salmonella typhimurium 1335; conditions: Salmonella enterica, Table 1, read-out: Minimum Inhibitory Concentration
Description: as §1

[25] = tested on: Klebsiella pneumoniae KAE; conditions: Table 1, read-out: Minimum Inhibitory Concentration
Description: as §1

Escherichia coli N10 = conditions: Table 1, read-out: Minimum Inhibitory Concentration
Description: as §1

[26] = tested on: Enterobacter aerogenes C32; conditions: Klebsiella aerogenes, Table 1, read-out: Minimum Inhibitory Concentration
Description: as §1

[27] = tested on: Streptococcus pneumoniae Park 1; conditions: PARK1, Table 1, read-out: Minimum Inhibitory Concentration
Description: as §1

[28] = tested on: Enterobacter aerogenes EB17; conditions: Klebsiella aerogenes, Table 1, read-out: Minimum Inhibitory Concentration
Description: as §1

[29] = tested on: Pseudomonas aeruginosa Ps18; conditions: Pseudomonas aeruginosa, PS18, read-out: Minimum Inhibitory Concentration
Description: as §1

[30] = tested on: Streptococcus group D 9960; conditions: D9960, Table 1, read-out: Minimum Inhibitory Concentration
Description: as §1

[31] = tested on: Staphylococcus epidermidis EPI2; conditions: Table 1, read-out: Minimum Inhibitory Concentration
Description: as §1

[32] = tested on: Streptococcus group D X66; conditions: DX66, Table 1, read-out: Minimum Inhibitory Concentration
Description: as §1

Enterobacter cloacae EB5 = conditions: Table 1, read-out: Minimum Inhibitory Concentration
Description: as §1

[33] = tested on: Haemophilus influenzae R252; conditions: Haemophilus influenzae, R252, read-out: Minimum Inhibitory Concentration
Description: as §1

[34] = tested on: Salmonella heidelberg X514; conditions: Salmonella enterica, Table 1, read-out: Minimum Inhibitory Concentration
Description: as §1

[35] = tested on: Streptococcus pyogenes C203; conditions: Table 1, read-out: Minimum Inhibitory Concentration
Description: as §1

Proteus inconstans PR33 = conditions: Providencia alcalifaciens, Table 1, read-out: Minimum Inhibitory Concentration
Description: as §1

[36] = tested on: Staphylococcus aureus V41; conditions: Table 1, read-out: Minimum Inhibitory Concentration
Description: as §1

Proteus morganii PR15 = conditions: Morganella morganii, Table 1, read-out: Minimum Inhibitory Concentration
Description: as §1

[37] = SE3, Table II, read-out: Minimum Inhibitory Concentration
[38] = X239, Table II, read-out: Minimum Inhibitory Concentration
[39] = X99, Table II, read-out: Minimum Inhibitory Concentration

SMILES: CN[C@@H]1[C@@H](O[C@H]2O[C@H](CO)[C@@H](NCc3ccccc3)[C@H](O)[C@H]2O)O[C@H]2C[C@@H](N)[C@@H](O[C@H]3[C@H](O)[C@@H](O)[C@H](N)C[C@@H]3N)O[C@@H]2[C@@H]1O [Test Compound 3, 4"-N-Benzylapramycin]
- MIC (Serratia marcescens SE3; [37]): 8 µg/mL (≈ 12.7 µM)
- MIC [1]: > 128 µg/mL
- MIC ([2]; Table II, read-out: Minimum Inhibitory Concentration): > 128 µg/mL
- MIC [3]: 8 µg/mL (≈ 12.7 µM)
- MIC [4]: > 128 µg/mL
- MIC [5]: 8 µg/mL (≈ 12.7 µM)
- MIC (Serratia marcescens SE2): 16 µg/mL (≈ 25.4 µM)
- MIC [6]: > 128 µg/mL
- MIC ([7]; Enterobacter cloacae, EB24, read-out: Minimum Inhibitory Concentration): 4 µg/mL (≈ 6.35 µM)
- MIC (Proteus morganii PR1): 32 µg/mL (≈ 50.8 µM)
- MIC [8, 38]: 128 µg/mL (≈ 203 µM)
- MIC [9]: 64 µg/mL (≈ 102 µM)
- MIC [10]: > 128 µg/mL
- MIC (Proteus rettgeri PR2): > 128 µg/mL
- MIC ([11]; Table II, Enterobacter aerogenes EB6, agar dilution, read-out: Minimum Inhibitory Concentration): 8 µg/mL (≈ 12.7 µM)
- MIC (Proteus inconstans PV25): 64 µg/mL (≈ 102 µM)
- MIC (Serratia marcescens X99; [39]): 4 µg/mL (≈ 6.35 µM)
- MIC [12]: 128 µg/mL (≈ 203 µM)
- MIC [13]: 128 µg/mL (≈ 203 µM)

SMILES: CCN[C@H]1[C@H](O)[C@@H](O)[C@@H](O[C@H]2O[C@H]3C[C@@H](N)[C@@H](O[C@H]4[C@H](O)[C@@H](O)[C@H](N)C[C@@H]4N)O[C@@H]3[C@H](O)[C@@H]2NC)O[C@@H]1CO [Test Compound 2, 4"-N-Ethylapramycin]
- MIC (Escherichia coli TEM): 4 µg/mL (≈ 7.05 µM)
- MIC (Shigella sonnei N9): 16 µg/mL (≈ 28.2 µM)
- MIC [14]: 32 µg/mL (≈ 56.4 µM)
- MIC (Serratia marcescens SE3; SE3, Table 1, read-out: Minimum Inhibitory Concentration): 16 µg/mL (≈ 28.2 µM)
- MIC (Serratia marcescens SE3; [37]): 4 µg/mL (≈ 7.05 µM)
- MIC [15]: 8 µg/mL (≈ 14.1 µM)
- MIC ([2]; Table 1, read-out: Minimum Inhibitory Concentration): 32 µg/mL (≈ 56.4 µM)
- Minimum Inhibitory Concentration ([2]; Table II): 32 µg/mL
- MIC [3]: 4 µg/mL (≈ 7.05 µM)
- MIC (Proteus rettgeri C24): 8 µg/mL (≈ 14.1 µM)
- MIC [4]: 8 µg/mL (≈ 14.1 µM)
- MIC [5]: 4 µg/mL (≈ 7.05 µM)
- MIC (Serratia marcescens SE2): 4 µg/mL (≈ 7.05 µM)
- MIC [16]: 32 µg/mL (≈ 56.4 µM)
- MIC [6]: > 128 µg/mL
- MIC (Proteus rettgeri PR7): 8 µg/mL (≈ 14.1 µM)
- MIC ([7]; Table II, Enterobacter cloacae EB24, agar dilution, read-out: Minimum Inhibitory Concentration): 4 µg/mL (≈ 7.05 µM)
- MIC [17]: 8 µg/mL (≈ 14.1 µM)
- MIC [18]: 8 µg/mL (≈ 14.1 µM)
- MIC [19]: 8 µg/mL (≈ 14.1 µM)
- MIC (Proteus morganii PR1): 4 µg/mL (≈ 7.05 µM)
- MIC [20]: 16 µg/mL (≈ 28.2 µM)
- MIC (Escherichia coli EC14): 8 µg/mL (≈ 14.1 µM)
- MIC [21]: 8 µg/mL (≈ 14.1 µM)
- MIC [22]: 2 µg/mL (≈ 3.52 µM)
- MIC [23]: 16 µg/mL (≈ 28.2 µM)
- MIC [24]: 16 µg/mL (≈ 28.2 µM)
- MIC [25]: 8 µg/mL (≈ 14.1 µM)
- MIC (Escherichia coli N10): 16 µg/mL (≈ 28.2 µM)
- MIC [26]: 8 µg/mL (≈ 14.1 µM)
- MIC ([8]; X239, Table 1, read-out: Minimum Inhibitory Concentration): 16 µg/mL (≈ 28.2 µM)
- MIC [8, 38]: 16 µg/mL (≈ 28.2 µM)
- MIC [27]: 32 µg/mL (≈ 56.4 µM)
- MIC [28]: 4 µg/mL (≈ 7.05 µM)
- MIC [29]: 4 µg/mL (≈ 7.05 µM)
- MIC [9]: 16 µg/mL (≈ 28.2 µM)
- MIC [10]: 64 µg/mL (≈ 113 µM)
- MIC (Proteus rettgeri PR2): 8 µg/mL (≈ 14.1 µM)
- MIC [30]: > 128 µg/mL
- MIC [31]: 32 µg/mL (≈ 56.4 µM)
- MIC ([11]; EB6, read-out: Minimum Inhibitory Concentration): 2 µg/mL (≈ 3.52 µM)
- MIC (Proteus inconstans PV25): 4 µg/mL (≈ 7.05 µM)
- MIC [32]: > 128 µg/mL
- MIC (Enterobacter cloacae EB5): 16 µg/mL (≈ 28.2 µM)
- MIC (Serratia marcescens X99; X99, Table 1, read-out: Minimum Inhibitory Concentration): 8 µg/mL (≈ 14.1 µM)
- MIC (Serratia marcescens X99; [39]): 2 µg/mL (≈ 3.52 µM)
- MIC [12]: 16 µg/mL (≈ 28.2 µM)
- MIC [13]: 16 µg/mL (≈ 28.2 µM)
- MIC [33]: 1 µg/mL (≈ 1.76 µM)
- MIC [34]: 16 µg/mL (≈ 28.2 µM)
- MIC [35]: 32 µg/mL (≈ 56.4 µM)
- MIC (Proteus inconstans PR33): 4 µg/mL (≈ 7.05 µM)
- MIC [36]: 16 µg/mL (≈ 28.2 µM)
- MIC (Proteus morganii PR15): 16 µg/mL (≈ 28.2 µM)
